Data on eleven compounds can be found in US9840478B2 (MERCK SHARP & DOHME CORP., priority 2013, dated 2017).

SMILES strings stand for the structures.

For the first experiment, the system named is HIV-1 (H9IIIB strain). Nature of the experiment: Cell-based HIV infection assay using a reporter (Cell-Based), MT4-GFP cells. As to conditions: Human immunodeficiency virus 1, MT4-GFP cells infected with HIV-1 H9IIIB; 50% normal human serum; mean of at least two independent experiments; read-out: Cell-based IP. The gist of the method: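 IC50 from 4-parameter dose-response of % viral growth inhibition, using the 48 h/24 h infected-cell ratio scaled between DMSO and a protease/integrase/NNRTI triple-drug control. Assay used MT4 cells with HIV-LTR-GFP reporter, pre-infected 24 h with HIV-1 H9IIIB, in 50% normal human serum.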
`COC(=O)N[C@H](C(=O)Nc1cccc(F)c1CC[C@H]1CNCCN1S(=O)(=O)c1ccccc1)[C@@H](c1ccc(Cl)cc1)c1cccc(OC(F)(F)F)c1` [Example 58, (βS)-4-chloro-N-(3-fluoro-2-{2-[(2S)-1-(phenylsulfonyl)piperazin-2-yl]ethyl}phenyl)-Nα-(methoxycarbonyl)-β-[3-(trifluoromethoxy)phenyl]-L-phenylalaninamide]: the IC50 stood at 42 nM.
Turning to `COC(=O)N[C@H](C(=O)Nc1cccc(F)c1CC[C@H]1CNCCN1S(=O)(=O)c1ccccc1)[C@@H](c1ccc(Cl)cc1)c1cc(F)cc(F)c1` [Example 59, (βS)-4-chloro-β-(3,5-difluorophenyl)-N-(3-fluoro-2-{2-[(2S)-1-(phenylsulfonyl)piperazin-2-yl]ethyl}phenyl)-Nα-(methoxycarbonyl)-L-phenylalaninamide], the IC50 came to 29 nM.
In the case of `O=C(CC(c1ccc(F)cc1)c1ccc(F)cc1)Nc1cccc(F)c1CC[C@H]1CNCCN1S(=O)(=O)c1ccccc1` [Example 60, 3,3-bis(4-fluorophenyl)-N-(3-fluoro-2-{2-[(2S)-1-(phenylsulfonyl)piperazin-2-yl]ethyl}phenyl)propanamide], the IC50 amounted to 27 nM.
As to `O=C(CC(c1ccc(F)cc1)c1ccc(F)cc1)Nc1cccc(F)c1CC[C@@H]1CNCCN1S(=O)(=O)c1ccccc1` [Example 61, 3,3-bis(4-fluorophenyl)-N-(3-fluoro-2-{2-[(2R)-1-(phenylsulfonyl)piperazin-2-yl]ethyl}phenyl)propanamide], the IC50 is 1200 nM.
On the same count and under the same terms, in the case of `O=C(CC1(c2ccc(Cl)cc2)CCOCC1)Nc1cncc(F)c1CC[C@H]1CNCCN1S(=O)(=O)C1CC1` [Example 62, 2-[4-(4-chlorophenyl)tetrahydro-2H-pyran-4-yl]-N-(4-{2-[(2S)-1-(cyclopropylsulfonyl)piperazin-2-yl]ethyl}-5-fluoropyridin-3-yl)acetamide] it was 520 nM.
As for `CS(=O)(=O)N1CCNC[C@@H]1CCc1c(F)cccc1NC(=O)[C@@H](N)[C@@H](c1ccc(Cl)cc1)C1CCOCC1` [Example 65, (βR)-4-chloro-N-(3-fluoro-2-{2-[(2S)-1-(methylsulfonyl)piperazin-2-yl]ethyl}phenyl)-β-(tetrahydro-2H-pyran-4-yl)-L-phenylalaninamide], the IC50 stood at 120 nM.
As to `COC(=O)N[C@H](C(=O)Nc1cccc(F)c1CC[C@H]1CNCCN1S(=O)(=O)c1ccccc1)[C@@H](c1ccc(Cl)cc1)c1cncc(C(F)(F)F)c1` [Example 66, (βS)-4-chloro-N-(3-fluoro-2-{2-[(2S)-1-(phenylsulfonyl)piperazin-2-yl]ethyl}phenyl)-Nα-(methoxycarbonyl)-β-[5-(trifluoromethyl)pyridin-3-yl]-L-phenylalaninamide], the IC50 is 12 nM.
Still for that read-out and setting: the value for `COc1ccc([C@H](c2ccc(Cl)cc2)[C@H](N)C(=O)Nc2cccc(F)c2CC[C@H]2CNCCN2S(=O)(=O)c2ccccc2)cn1` [Example 67, (βS)-4-chloro-N-(3-fluoro-2-{2-[(2S)-1-(phenylsulfonyl)piperazin-2-yl]ethyl}phenyl)-β-(6-methoxypridin-3-yl)-L-phenylalaninamide] was 5.8 nM; that for `CN(CC(F)(F)F)S(=O)(=O)N1CCNC[C@@H]1CCc1c(F)cccc1NC(=O)[C@@H](N)C(c1ccc(F)cc1)c1ccc(F)cc1` [Example 68, 4-fluoro-N-[3-fluoro-2-(2-{(2S)-1-[methyl(2,2,2-trifluoroethyl)sulfamoyl]piperazin-2-yl}ethyl)phenyl]-β-(4-fluorophenyl)-L-phenylalaninamide] was 1800 nM; that for `N[C@H](C(=O)Nc1cncc(F)c1CC[C@H]1CNCCN1S(=O)(=O)c1ccccc1)C1(c2ccc(Cl)cc2)CCOCC1` [Example 70, (2S)-2-amino-2-[4-(4-chlorophenyl)tetrahydro-2H-pyran-4-yl]-N-(5-fluoro-4-{2-[(2S)-1-(phenylsulfonyl)piperazin-2-yl]ethyl}pyridin-3-yl)ethanamide] was 27 nM.

The experiment is the same for the next values; noted with them: MT4-GFP cells infected with HIV-1 H9IIIB; 50% normal human serum; mean of at least two independent experiments; read-out: Cell-based IP.
With `CN(CC1CC1)S(=O)(=O)N1CCNC[C@@H]1CCc1c(F)cccc1NC(=O)[C@@H](N)C(c1ccc(F)cc1)c1ccc(F)cc1` [Example 69], the IC50 was 360 nM.
